Laboratory results reported in US8481582B2, “1,3-dihydroimidazole-2-thione derivatives as inhibitors of dopamine-beta-hydroxylase” (Bial-Portela & CA, S.A., priority 2007, dated 2013).

Tests used:
[1] = tested on: noradrenaline levels in the heart and parietal cortex; assay: Noradrenaline levels in heart and parietal cortex of mice 9 h after oral dosing; assay type: in vivo, Male NMRI mice; conditions: oral gavage, 9 h post dose, FIG. 1, compared with prior art DβH inhibitors
Experimental: Male NMRI mice were obtained from Harlan-Interfauna (Spain) and were kept 10 per cage under controlled environmental conditions (12 h light/dark cycle and room temperature 22±1° C.). Food and tap water were allowed ad libitum and experimentation was performed during daylight hours.
At time=0 h, animals were administered with either test compounds (see FIG. 2) at a given dose or vehicle (water) delivered orally via gavage. At 9 h post dose, the animals were sacrificed by decapitation and heart (left atrium and left ventricle) and brain (parietal cortex) were isolated, weighed and stored in a volume of 0.2 M perchloric acid for 12 h at 4° C. in the dark. Post incubation, the resulting supernatants were collected by centrifuge filtration of incubates ([…]/10 min/˜5000 rpm, 4° C.). Supernatants were stored frozen at −80° C. until analysis. Quantification of dopamine and noradrenaline in supernatants was performed by high pressure liquid chromatography with electrochemical detection.

[2] = central as well as peripheral effects; cited from earlier work

Row | Structure (SMILES) | effect on noradrenaline levels in the heart and parietal cortex (heart vs brain selectivity) [1] | crossing of the blood brain barrier (BBB) [2]
1 | Fc1cc(F)c2c(c1)CC(n1c(CCNCc3ccccc3)c[nH]c1=S)CO2 (single isomer, unassigned) [formula X] | marked selectivity for the heart compared to the brain | –
2 | NCc1c[nH]c(=S)n1[C@H]1CCc2c(F)cc(F)cc2C1 [nepicastat] | – | cross the blood brain barrier
